Legend:
Type in all cases: cell-based
[1] = tested on: Streptococcus pneumoniae 1629; assay: conventional MIC assay, Streptococcus pneumoniae 1629; settings: against Streptococcus pneumoniae 1629
Description: (§1) Compounds of the present invention were assessed for anti-bacterial activity in a conventional MIC assay against a range of pathogenic organisms.

[2] = tested on: Moraxella catarrhalis 1502; assay: conventional MIC assay, Moraxella catarrhalis 1502; settings: against Moraxella catarrhalis 1502
Description: as §1

[3] = tested on: Haemophilus influenzae Q1; assay: conventional MIC assay, Haemophilus influenzae Q1; settings: against Haemophilus influenzae Q1
Description: as §1

[4] = tested on: Staphylococcus aureus Oxford; assay: conventional MIC assay, Staphylococcus aureus Oxford; settings: against Staphylococcus aureus Oxford
Description: as §1

Measured: MIC

C=C[C@]1(C)C[C@@H](OC(=O)NC(=O)OCCN2CCN(S(N)(=O)=O)CC2)[C@]2(C)[C@H](C)CC[C@]3(CCC(=O)[C@H]32)[C@@H](C)[C@@H]1O [Example 121]
≤ 4 µg/mL: all assays above

C=C[C@]1(C)C[C@@H](OC(=O)NC(=O)O[C@@H]2CCN(CC#N)C2)[C@]2(C)[C@H](C)CC[C@]3(CCC(=O)[C@H]32)[C@@H](C)[C@@H]1O [Example 123, Mutilin 14-[N-(1-cyanomethylpyrrolidin-3-(R)-yloxycarbonyl)]carbamate]
≤ 4 µg/mL: all assays above

C=C[C@]1(C)C[C@@H](OC(=O)NC(=O)O[C@H]2CN[C@H](C#N)C2)[C@]2(C)[C@H](C)CC[C@]3(CCC(=O)[C@H]32)[C@@H](C)[C@@H]1O [Example 126, Mutilin 14-[N-(5-(S)-cyanopyrrolidin-3-(R)-yloxycarbonyl)]carbamate]
≤ 4 µg/mL: all assays above

C=C[C@]1(C)C[C@@H](OC(=O)NC(=O)OCS(C)(=O)=O)[C@]2(C)[C@H](C)CC[C@]3(CCC(=O)[C@H]32)[C@@H](C)[C@@H]1O [Example 117, Mutilin 14-[N-(methylsulfonylmethoxycarbonyl)]carbamate]
≤ 4 µg/mL: all assays above

C=C[C@]1(C)C[C@@H](OC(=O)NC(=O)OC2CN(CC#N)C2)[C@]2(C)[C@H](C)CC[C@]3(CCC(=O)[C@H]32)[C@@H](C)[C@@H]1O [Example 129, Mutilin 14-[N-(1-cyanomethylazetidin-3-yloxycarbonyl)]-carbamate]
≤ 4 µg/mL: all assays above

C=C[C@]1(C)C[C@@H](OC(=O)NC(=O)O[C@@H]2CO[C@H]3[C@@H]2OC[C@@H]3N)[C@]2(C)[C@H](C)CC[C@]3(CCC(=O)[C@H]32)[C@@H](C)[C@@H]1O [Example 122, Mutilin 14-[N-(((3R,3aR,6S,6aR)-6-amino-hexahydrofuro[3,2-b]furan-3-yl)oxycarbonyl)]carbamate]
≤ 4 µg/mL: all assays above

C=C[C@]1(C)C[C@@H](OC(=O)NC(=O)OCCN2CCN(C=O)CC2)[C@]2(C)[C@H](C)CC[C@]3(CCC(=O)[C@H]32)[C@@H](C)[C@@H]1O [Example 120, Mutilin 14-[N-(2-(4-formylpiperazin-1-yl)ethyloxycarbonyl)]carbamate]
≤ 4 µg/mL: all assays above

C=C[C@]1(C)C[C@@H](OC(=O)NC(=O)OCc2ncc(C(N)=O)c(N)n2)[C@]2(C)[C@H](C)CC[C@]3(CCC(=O)[C@H]32)[C@@H](C)[C@@H]1O [Example 116, Mutilin 14-[N-(4-amino-5-carboxamidopyrimidin-2-ylmethoxycarbonyl)]carbamate]
≤ 4 µg/mL: all assays above

C=C[C@]1(C)C[C@@H](OC(=O)NC(=O)OC2CN(N)C2)[C@]2(C)[C@H](C)CC[C@]3(CCC(=O)[C@H]32)[C@@H](C)[C@@H]1O [Example 130, Mutilin 14-[N-(1-aminoazetidin-3-yloxycarbonyl)]-carbamate]
≤ 4 µg/mL: all assays above

C=C[C@]1(C)C[C@@H](OC(=O)NC(=O)O[C@H]2COC[C@H]2OC(N)=O)[C@]2(C)[C@H](C)CC[C@]3(CCC(=O)[C@H]32)[C@@H](C)[C@@H]1O (racemic) [Example 118, Mutilin 14-[N-(cis-4-carbamoyloxytetrahydrofuran-3-yloxycarbonyl)]carbamate]
≤ 4 µg/mL: all assays above

C=C[C@]1(C)C[C@@H](OC(=O)NC(=O)OC2CN(CC(N)=O)C2)[C@]2(C)[C@H](C)CC[C@]3(CCC(=O)[C@H]32)[C@@H](C)[C@@H]1O [Example 128, Mutilin 14-[N-(1-carbamoylmethylazetidin-3-yloxycarbonyl)]-carbamate]
≤ 4 µg/mL: all assays above

C=C[C@]1(C)C[C@@H](OC(=O)NC(=O)OCc2cnc(N)c(C(N)=O)n2)[C@]2(C)[C@H](C)CC[C@]3(CCC(=O)[C@H]32)[C@@H](C)[C@@H]1O [Example 119]
≤ 4 µg/mL: all assays above

— patent publication US7160907B2, “Pleuromutilin derivatives” (SmithKline Beecham P.L.C., priority 2000, dated 2007)
